Data: patent US20260103474A1, “NOVEL COMPOUNDS FOR THE DIAGNOSIS OF TDP-43 PROTEINOPATHIES” (AC IMMUNE SA, priority 2022, published 2026)

Experiments:
[1] = molecular target: T1, PD brain-derived a-synuclein aggregates (Homo sapiens, UniProt P37840); test: Micro-radiobinding direct binding on PD brain-derived a-synuclein aggregates; settings: tritiated compound 0.6 to 200 nM
T1 construct: from tissue; host or cells: frozen brain tissue of PD donors, 1% sarkosyl-insoluble pellet
Description: The procedure was adapted from the protocol described in Spillantini et al., 1998. Frozen tissue blocks from PD donors were thawed on ice and homogenized using a glass dounce homogenizer. The homogenate was then centrifuged at 11,000×g (12,700 RPM) in an ultracentrifuge (Beckman, XL100K) for 20 minutes at 4° C. using a pre-cooled 70.1 rotor (Beckman, 342184). Pellets were resuspended in extraction buffer [10 mM Tris-HCl pH 7.4, 10% sucrose, […], 1% protease inhibitor (Calbiochem 539131), 1 mM EGTA, 1% phosphatase inhibitor (Sigma P5726 and P0044)] and centrifuged at 15,000×g (14,800 RPM, a 70.1 Ti rotor) for 20 minutes at 4° C. […]
PD brain-derived a-synuclein aggregates and AD brain-derived Tau PHF aggregates were spotted onto microarray slides. […] Quantification of signal was performed by using the image analysis software Beamage (ai4R). Non-specific signal was determined with an excess of non-radiolabelled compound (2 μM) and specific binding was calculated by subtracting the non-specific signal from the total signal. Competition was calculated as percentage, where 0% was defined as the specific binding in the presence of vehicle and 100% as the values obtained in the presence of excess of the non-radiolabelled a-syn reference compound. Ki values were calculated in GraphPad Prism7 by applying a nonlinear regression curve fit using a one site, specific binding model. […]

[2] = system: AD brain homogenates (containing Abeta and Tau); test: Radiobinding assay (direct binding, Kd) on AD insoluble fraction of brain homogenates; design: species or system human; settings: saturation binding of tritiated compound
Description: Approximately 4 g of frozen tissue block from frontal cortex brain region was used from an AD donor with confirmed burden of Tau and Abeta aggregates. The tissue was homogenized in three volumes (1:3 w/v) of high salt buffer (50 mM Tris-HCl pH 7.5, 750 mM NaCl, 5 mM EDTA) supplemented with protease inhibitors (Complete; Roche 11697498001) at 4° C. with a glass Dounce homogenizer. The homogenate was transferred into polycarbonate centrifuge bottles (16×76 mm; Beckman 355603) and centrifuged at 100,000×g (38,000 RPM) in an ultracentrifuge (Beckman, XL100K) for 60 minutes at 4° C. using a pre-cooled 70.1 rotor (Beckman, 342184). Pellets were resuspended in high salt buffer supplemented with 1% Triton X-100 and homogenized at 4° C. with a syringe. The homogenates were centrifuged again at 100,000×g (38,000 RPM, 70.1 rotor) for 60 minutes at 4° C. Pellets were resuspended in high salt buffer supplemented with 1% Triton X-100 and 1 M sucrose and homogenized at 4° C. with a syringe. […]
The AD insoluble fraction was incubated with [^3H]Compound 1, [^3H]Compound 17 or [^3H]Abeta reference compound ([^3H]Abeta ref) at different concentrations. […] The filters were analyzed on a Microbeta scintillation counter (PerkinElmer). Specific binding was calculated by subtracting the non-specific signal from the total signal. […]

[3] = system: Abeta and Tau aggregates in AD tissue; test: Classical autoradiography on Abeta- and Tau-rich AD brain tissue sections; assay type: binding, human; settings: tritiated compound 10 nM; alone or in self-competition
Description: All tissues were collected from donors for or from whom a written informed consent for a brain autopsy and the use of the material and clinical information for research purposes had been obtained by the respective brain banks. All samples were anonymized and coded. Frozen brain tissue blocks with confirmed Abeta and Tau pathology upon autopsy were processed using a cryotome to generate sections of 10 μm in thickness and mounted on glass slides. Sections were kept at −80° C. until use.
Brain sections were fixed for 15 minutes at 4° C. with 4% formaldehyde on ice and washed three times for eight minutes with 1×PBS at RT. Sections were blocked in assay buffer for 30 minutes (50 mM Tris-HCl, 0.9% NaCl+0.1% BSA). Cold test compound (Compound 1) was diluted in assay buffer to 4 μM and applied on half of the sections for 40 minutes at RT to determine non-specific binding. The remaining half of the sections were only incubated with assay buffer (total binding). […]
Sections were subsequently dried under a stream of air and mounted with a copper-based adhesive strip. Bound radioactivity was quantified by exposing the slides in a real-time autoradiography system (Beaquant™ AI4R) for 2 hours with measurement settings configured for tritium. Beavacq software (AI4R) was used to acquire the image which was subsequently quantified using Beamage image analysis software (AI4R).

Compound	Direct binding in PD brain-derived a-synuclein aggregates [1]	Direct binding in AD brain homogenates (containing Abeta and Tau) [2]	Classical autoradiography signal on AD tissue with abundant Abeta and Tau pathology [3]
[3H]c1cncc(N2CCc3nc(-c4cc([3H])c(N5CC[C@@H](F)C5)nc4F)sc3C2=O)c1 [[^3H]-Compound 1, tritiated 2-[2-fluoro-6-[(3R)-3-fluoropyrrolidin-1-yl]-3-pyridyl]-5-(3-pyridyl)-6,7-dihydrothiazolo[5,4-c]pyridin-4-one]	No significant binding	No significant binding	
O=C1c2sc(-c3ccc(N4CC[C@@H](F)C4)nc3F)nc2CCN1c1cccnc1 [Compound 1, 2-[2-fluoro-6-[(3R)-3-fluoropyrrolidin-1-yl]-3-pyridyl]-5-(3-pyridyl)-6,7-dihydrothiazolo[5,4-c]pyridin-4-one]			no signal on the tissue
[3H]C([3H])(O)C1CCN(c2ccc(-c3nc4c(s3)C(=O)N(c3cccnc3)CC4)c(F)n2)CC1 [[^3H]-Compound 17, 2-(2-fluoro-6-(4-(hydroxymethyl-t2)piperidin-1-yl)pyridin-3-yl)-5-(pyridin-3-yl)-6,7-dihydrothiazolo[5,4-c]pyridin-4(5H)-one]	No significant binding	No significant binding	
O=C1c2sc(-c3ccc(N4CCC(CO)CC4)nc3F)nc2CCN1c1cccnc1 [Compound 17, 2-(2-fluoro-6-(4-(hydroxymethyl)piperidin-1-yl)pyridin-3-yl)-5-(pyridin-3-yl)-6,7-dihydrothiazolo[5,4-c]pyridin-4(5H)-one]			no signal on the tissue
